Results on 13 molecules are retold here after PubChem BioAssay (NCI).

Each structure is given as a SMILES string.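 Briefly, cells in 96-well plates were exposed to five compound concentrations for 48 h, and endpoints were estimated by linear interpolation. GI50 is the concentration that inhibits growth by half. The concentration for full growth arrest is given as TGI.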

What all share (experiment): inhibition of tumour cell growth, NCI panel, 48 h
Test [1] concerns BT-549 breast.
Test [2] has as its system SF-268 CNS.
In test [3] the test system is UACC-257 melanoma.
Test [4] concerns SF-539 CNS.
Test [5] deals with RXF 393 renal.
Test [6] relates to SK-MEL-5 melanoma.
Test [7] has as its system NCI-H226 lung.
For test [8], the system named is OVCAR-5 ovarian.
The test system of test [9] is HCT-15 colon.
Test [10] deals with HOP-62 NSCLC.

Take `Oc1ccc2ccccc2c1/C=C/c1ccc2c(Br)cc(Br)c(O)c2n1`: the TGI amounted to 26.8 µM in test [1]; 21.8 µM in test [2]; 22.9 µM in [3]; 13.6 µM in [4]; 24.7 µM in test [5]; 14.5 µM in [6]. The TGI in test [7] is 20.3 µM; in [8] it was 21.7 µM; in test [9], 17.5 µM; in test [10], 34.5 µM.
`COc1nc(C(=O)NNC(=O)c2nc(OC)c3ccccc3c2-c2ccccc2)c(-c2ccccc2)c2ccccc12`: the TGI in test [1], in test [2], in [3], in test [5], in [6] and in test [7] was over 100 µM in each case. Further, the TGI in test [8], in test [9] and in [10] was over 100 µM each time.
For the molecule `C=CCNC1=C2C[C@@H](C)C[C@@H](OC)[C@H](OC(=O)CCCCN)[C@H](C)/C=C(\C)[C@@H](OC(N)=O)[C@H](OC)/C=C\C=C(/C)C(=O)NC(=CC1=O)C2=O`, the TGI came out at 33.4 µM in test [1]; 32.8 µM in test [2]; 18.9 µM in [3]; 29.2 µM in [5]; 25.5 µM in [6]; 34 µM in test [8]. For the same molecule, the TGI in [9] was determined as 34.1 µM; in [10], 18.5 µM.
On to `CCc1nc(N)nc(N)c1-c1ccc2nn(-c3ccccc3)[n+]([O-])c2c1`, for which the TGI in [1] was 26.3 µM; in test [2], 31.5 µM; in test [3] it was 24.2 µM; in test [4], 18.2 µM; in test [5] it was 25 µM; in test [6], 19.6 µM. In addition, the TGI in test [7] was determined as 48.7 µM; in test [8], 44.3 µM; in test [9], 18.8 µM; in test [10] it was 25.3 µM.
For the molecule `CCn1c(-c2cc(OC)cc(OC)c2)nc2c1C(=O)c1ccccc1C2=O`, the TGI in [1] was over 100 µM; in test [2], over 100 µM; in [3], over 100 µM; in [4] it was over 100 µM; in test [5], 69.2 µM; in [6], over 100 µM. For the same molecule, the TGI in [7], in [8], in test [9] and in test [10] was over 100 µM throughout.
On to `CC(=O)n1nc(-c2ccccc2)n(/N=C/c2ccc([N+](=O)[O-])cc2)c1=O`, for which the TGI in test [1], in [2], in [3], in test [4], in test [5] and in test [6] was over 100 µM throughout. In addition, the TGI in [7], in [8] and in test [9] was over 100 µM throughout.
For `CCOC(=O)C1=C(C)N(C)C23OC4(C(=O)OC)CC2c2ccccc2C1N3C4=O` (stereo not drawn), the TGI in test [1], in test [2], in [3], in test [4], in test [6] and in [7] was over 100 µM throughout. In addition, the TGI in [8], in test [9] and in [10] was over 100 µM in each case.
`COC(=O)Cc1cc(O)c(C/C=C(\C)CC/C=C(\C)C(O)C(=O)C=C(C)C)cc1O` (stereo not drawn): the TGI was determined as 72.8 µM in [1]; 40.6 µM in test [2]; 77.6 µM in test [3]; 40.5 µM in [4]; 30 µM in [5]; 40.4 µM in [6]. The TGI was 51.8 µM in test [7], over 100 µM in [8] and 41.6 µM in test [10].
Consider `C[C@@H]1C[C@H]2[C@@H]3CCC4=CC(=O)C=C[C@]4(C)[C@@]3(Cl)[C@@H](Cl)C[C@]2(C)[C@@]1(O)C(=O)COP(=O)(O)O`, for which the TGI in test [1], in test [2], in [3], in [5], in [6] and in [7] was over 100 µM in each case. Moreover, the TGI in test [8], in test [9] and in test [10] was over 100 µM each time.
Consider `O=[N+]([O-])c1ccc(C=C2C(Cl)=C(Cl)C(Cl)=C2Cl)cc1`, for which the GI50 in [1] is 4.75 µM; in test [2] it was 2010 nM; in [4], 2540 nM; in [5], 1810 nM; in test [6] it was 21.8 µM; in test [7] it was 4.31 µM. For the same molecule, the GI50 in test [8] was 3.3 µM; in test [9], 3.17 µM; in test [10], 1960 nM. The TGI in [1] was over 100 µM; in [2], 4.4 µM; in [4], 7.09 µM; in [5], 3.39 µM; in test [6], over 100 µM; in test [7] it was 23 µM. For the same molecule, the TGI was over 100 µM in [8], over 100 µM in test [9] and 4.38 µM in [10].
As for `CC(C)C1OC23CCCCC2C(C#N)(C#N)C1(C#N)C(=N)O3` (stereo not drawn), the TGI in test [1] was determined as 39.8 µM; in test [2], 46.6 µM; in test [3], 45.9 µM; in test [4] it was 39.4 µM; in test [5], 46.4 µM; in [6] it was 35.7 µM. In addition, the TGI in [7] is over 100 µM; in [8], 47.5 µM; in [9] it was 23.5 µM.
As for `CCc1nc(N)nc(N)c1-c1ccc(Cl)c(Cl)c1`, the TGI in test [1], in test [2], in test [3], in [4], in [5] and in [6] was over 100 µM in each case. Further, the TGI in test [8], in test [9] and in test [10] was over 100 µM throughout.
For `CNn1c(-c2ccccc2)n[nH]c1=O`, the TGI in test [1], in test [2], in [3], in test [4], in [6] and in test [7] was over 100 µM each time. For the same molecule, the TGI in test [8], in [9] and in test [10] was over 100 µM throughout.
